According to patent US8426202B2, “Cell culture medium” (Cellca GmbH, priority 2005, dated 2013):
Values joined by “and” are separate entries in the source; they are usually repeats but may differ in a detail not shown here. Equal entries are not always repeated.

How the values were obtained:
[1] = system: CHO cell line that expresses an antibody; experiment: Batch experiment with the substances according to the invention (Example 1); type: cell-based, Chinese hamster; details: batch mode, substance 0.5-1 g/l, basal medium glucose 4.7 g/l, glutamine […]
Experimental: Cells were stored in the gas phase of liquid nitrogen. One to two ampoules were thawed in nutrient medium preheated to 37° C. and transferred to spinner bottles, shaking flasks or T-bottles. In the first few days of cultivation the medium was changed, depending on the clone.
Depending on the clone, cells were split either every second day or every third day or after two and three days alternately into new medium, i.e. a portion of the cell suspension was removed from culture and a smaller portion of the cell suspension was reused as inoculum for the next culture. This inoculum was made up with fresh prewarmed nutrient medium. Cells were incubated at 37° C. in an incubator with a CO2 atmosphere. An alternative for incubating cells was cultivation in an incubation chamber at 37° C., in this way cells were held in culture for several passages. A passage means a cultivation time of two to three days. At various points of time, cell suspension was taken from strain maintenance and used as inoculum for experiments. The experiments were carried out in various cultivation systems, for example in spinner bottles, T-bottles, shaking flasks, culture tubes or in controlled bioreactors.
(§1) Feed took place at regular intervals.

[2] = system: CHO cell line that expresses an antibody; experiment: Fed-batch experiment with the substances according to the invention (Example 2, Table 2); type: cell-based, Chinese hamster; set-up: Viabil.: concentration or dose not given beside the values
Text: as §1

For `O=C(O)CC(O)C(=O)O` (stereo not drawn) [Malic acid], the Gln ([1]; day 0) was 1.53 mM, the Glucose ([1]; day 0) was 4.69 g/L and the Lactate ([1]; day 0) was 0 g/L. For the same compound, the NH4 ([1]; day 0) was 1.22 mM, the “Specific Glutamin consumption (Gln/VCD)” value ([1]; day 0) was 1.49 and the “Specific ammonia production (NH4/VCD)” value ([1]; day 0) was 1.18. The “Specific glucose consumption (Gluc/VCD)” value ([1]; day 0) was 4.55, the “Specific lactate production (Lac/VCD)” value ([1]; day 0) was 0.00 and the “Total Cell Density TCD” value ([1]; day 0) was 1.07 E5/ml. The Viabil. ([1]; day 0) was 96%, the “Viable Cell Density (VCD)” value ([1]; day 0) was 1.03 E5/ml and the Gln ([1]; day 3) was 0.67 mM. It also gave a Glucose ([1]; day 3) of 3.9 g/L, a Lactate ([1]; day 3) of 0.85 g/L and an NH4 ([1]; day 3) of 1.9 mM. The “Specific Glutamin consumption (Gln/VCD)” value ([1]; day 3) was 0.09, the “Specific ammonia production (NH4/VCD)” value ([1]; day 3) was 0.25 and the “Specific glucose consumption (Gluc/VCD)” value ([1]; day 3) was 0.51. For the same compound, the “Specific lactate production (Lac/VCD)” value ([1]; day 3) was 0.11, the “Total Cell Density TCD” value ([1]; day 3) was 7.8 E5/ml and the Viabil. ([1]; day 3) was 97%. The “Viable Cell Density (VCD)” value ([1]; day 3) was 7.6 E5/ml, the Gln ([1]; day 6) was 0.28 mM and the Glucose ([1]; day 6) was 2.65 g/L. For the same compound, the Lactate ([1]; day 6) was 1.14 g/L, the NH4 ([1]; day 6) was 2.42 mM and the “Specific Glutamin consumption (Gln/VCD)” value ([1]; day 6) was 0.01. For the same compound, the “Specific ammonia production (NH4/VCD)” value ([1]; day 6) was 0.06, the “Specific glucose consumption (Gluc/VCD)” value ([1]; day 6) was 0.06 and the “Specific lactate production (Lac/VCD)” value ([1]; day 6) was 0.03. For the same compound, the “Total Cell Density TCD” value ([1]; day 6) was 43.4 E5/ml, the Viabil. ([1]; day 6) was 97% and the “Viable Cell Density (VCD)” value ([1]; day 6) was 42.2 E5/ml. The Gln ([1]; day 8) was 0.37 mM, the Glucose ([1]; day 8) was 1.76 g/L and the Lactate ([1]; day 8) was 0.94 g/L. For the same compound, the NH4 ([1]; day 8) was 2.4 mM, the “Specific Glutamin consumption (Gln/VCD)” value ([1]; day 8) was 0.02 and the “Specific ammonia production (NH4/VCD)” value ([1]; day 8) was 0.10. The “Specific glucose consumption (Gluc/VCD)” value ([1]; day 8) was 0.08, the “Specific lactate production (Lac/VCD)” value ([1]; day 8) was 0.04 and the “Total Cell Density TCD” value ([1]; day 8) was 26.1 E5/ml. The Viabil. ([1]; day 8) was 89%, the “Viable Cell Density (VCD)” value ([1]; day 8) was 23.2 E5/ml and the Gln ([1]; day 11) was 0.44 mM. For the same compound, the Glucose ([1]; day 11) was 0.47 g/L, the Lactate ([1]; day 11) was 1.2 g/L and the NH4 ([1]; day 11) was 2.75 mM. For the same compound, the “Specific Glutamin consumption (Gln/VCD)” value ([1]; day 11) was 0.03, the “Specific ammonia production (NH4/VCD)” value ([1]; day 11) was 0.16 and the “Specific glucose consumption (Gluc/VCD)” value ([1]; day 11) was 0.03. The “Specific lactate production (Lac/VCD)” value ([1]; day 11) was 0.07, the “Total Cell Density TCD” value ([1]; day 11) was 28.5 E5/ml and the Viabil. ([1]; day 11) was 61%. The “Viable Cell Density (VCD)” value ([1]; day 11) was 17.5 E5/ml, the “Total Cell Density TCD” value ([2]; day 0, fed-batch) was 1.5 E5/ml and the Viabil. ([2]; day 0, fed-batch) was 91%. The “Viable Cell Density (VCD)” value ([2]; day 0, fed-batch) was 1.37 E5/ml, the “Total Cell Density TCD” value ([2]; day 2, fed-batch) was 3.9 E5/ml and 4.2 E5/ml and the Viabil. ([2]; day 2, fed-batch) was 97% and 98%. For the same compound, the “Viable Cell Density (VCD)” value ([2]; day 2, fed-batch) was 3.8 E5/ml and 4.1 E5/ml, the “Total Cell Density TCD” value ([2]; day 5, fed-batch) was 14.1 E5/ml and 12.8 E5/ml and the Viabil. ([2]; day 5, fed-batch) was 97% and 98%. For the same compound, the “Viable Cell Density (VCD)” value ([2]; day 5, fed-batch) was 13.7 E5/ml and 12.5 E5/ml, the “Total Cell Density TCD” value ([2]; day 8, fed-batch) was 49.1 E5/ml and 45.3 E5/ml and the Viabil. ([2]; day 8, fed-batch) was 91% and 92%. For the same compound, the “Viable Cell Density (VCD)” value ([2]; day 8, fed-batch) was 44.9 E5/ml and 41.6 E5/ml.

With `NCCC[C@H](N)C(=O)O` [Ornithine] the Gln ([1]; day 0) was 1.53 mM, the Glucose ([1]; day 0) was 4.69 g/L and the Lactate ([1]; day 0) was 0 g/L. For the same compound, the “Specific Glutamin consumption (Gln/VCD)” value ([1]; day 0) was 1.49, the “Specific ammonia production (NH4/VCD)” value ([1]; day 0) was 1.18 and the “Specific glucose consumption (Gluc/VCD)” value ([1]; day 0) was 4.55. The “Specific lactate production (Lac/VCD)” value ([1]; day 0) was 0.00, the Viabil. ([1]; day 0) was 96% and the Gln ([1]; day 3) was 0.92 mM. The Glucose ([1]; day 3) was 4.24 g/L, the Lactate ([1]; day 3) was 0.71 g/L and the “Specific Glutamin consumption (Gln/VCD)” value ([1]; day 3) was 0.15. For the same compound, the “Specific ammonia production (NH4/VCD)” value ([1]; day 3) was 0.29, the “Specific glucose consumption (Gluc/VCD)” value ([1]; day 3) was 0.67 and the “Specific lactate production (Lac/VCD)” value ([1]; day 3) was 0.11. It also gave a Viabil. ([1]; day 3) of 97%, a Gln ([1]; day 6) of 0.11 mM and a Glucose ([1]; day 6) of 2.7 g/L. The “Specific Glutamin consumption (Gln/VCD)” value ([1]; day 6) was 0.00, the “Specific ammonia production (NH4/VCD)” value ([1]; day 6) was 0.06 and the “Specific glucose consumption (Gluc/VCD)” value ([1]; day 6) was 0.06. For the same compound, the “Specific lactate production (Lac/VCD)” value ([1]; day 6) was 0.02, the Viabil. ([1]; day 6) was 98% and the Gln ([1]; day 8) was 0.37 mM. For the same compound, the “Specific Glutamin consumption (Gln/VCD)” value ([1]; day 8) was 0.02, the “Specific ammonia production (NH4/VCD)” value ([1]; day 8) was 0.14 and the “Specific glucose consumption (Gluc/VCD)” value ([1]; day 8) was 0.09. For the same compound, the “Specific lactate production (Lac/VCD)” value ([1]; day 8) was 0.05, the Viabil. ([1]; day 8) was 89% and the Gln ([1]; day 11) was 0.46 mM. For the same compound, the Glucose ([1]; day 11) was 0.53 g/L, the Lactate ([1]; day 11) was 1.26 g/L and the “Specific Glutamin consumption (Gln/VCD)” value ([1]; day 11) was 0.03. For the same compound, the “Specific ammonia production (NH4/VCD)” value ([1]; day 11) was 0.22, the “Specific glucose consumption (Gluc/VCD)” value ([1]; day 11) was 0.04 and the “Specific lactate production (Lac/VCD)” value ([1]; day 11) was 0.09. For the same compound, the Viabil. ([1]; day 11) was 60%, the Viabil. ([2]; day 0, fed-batch) was 91% and the Viabil. ([2]; day 2, fed-batch) was 98% and 97%. For the same compound, the Viabil. ([2]; day 5, fed-batch) was 96% and the Viabil. ([2]; day 8, fed-batch) was 94%.
